Measured values reported in the NIST ThermoML archive (doi:10.1021/je1004966).
± gives the expanded uncertainty stated by the source.

Conditions: Crystal; DTA

Normal melting temperature: 86.0 ± 1 °C
Compound: Cl.Cn1ccnc1 [1-methylimidazolium chloride]
